Measured values: ChEMBL document CHEMBL3988442, “University of Dundee, Small-Polar-MMV Screening Library” (2021)

Assays:
Schistosoma mansoni = test: High throughput screening of compounds against Schistosoma mansoni motility; assay type: functional; parameters: dose or concentration left out as unconfirmed
[1] = microbe, parasite or virus in culture; conditions: Mycobacterium tuberculosis, 72 h, read-out: pIC50 (converted)
[2] = microbe, parasite or virus in culture; conditions: Mycobacterium tuberculosis, 96 h, read-out: pIC50 (converted)

Compound	Percent Effect (Schistosoma mansoni) [%]	IC50 [1] [µM]	IC50 [2] [µM]
CCCc1nnsc1C(=O)NCC1CCN(c2ccccn2)CC1	-128.4	> 50.1	30.8
OCC1CCCN1c1cc(NCCc2c[nH]c3ccccc23)ncn1 (configuration not stated)	50.05	21.4	12.9
Cc1cnn(CC2CCCN2Cc2coc(-c3ccccc3)n2)c1 (configuration not stated)	-1.507	22.6	> 50.1
CCc1c(C)sc(NC(=O)CN2CCN(CC)CC2)c1C(=O)OC	98.89	2.52	15.4
O=C(NC1CCCC1)N1CCCC(c2nccn2Cc2ccncc2)C1 (configuration not stated)	-2.761	–	> 50.1
O=C(CSc1nncs1)N1CCN(Cc2ccc(Cl)s2)CC1	-37.37	48.2	41.1
CCCN1CCCn2nc(CNC(=O)CCc3scnc3C)cc2C1	25.43	–	–
Cc1ccsc1CN(CCN(C)C)Cc1ccccn1	-19.12	–	–
O=C1CN(Cc2nnc(-c3ccc(Br)o3)o2)CCN1	-20.64	–	–
Cc1cc(C[C@@H]2COC[C@@H]2NC(=O)CN2CCCC2)on1	-45.11	–	–
CC(COc1ccccc1)NCc1nc(-c2cccnc2)no1 (configuration not stated)	-35.35	–	–
CC(CN1CCOCC1)NCC1CCN(c2cnn(C)c(=O)c2)CC1 (configuration not stated)	33.93	–	–
CC(C)(C)c1cc(CN2CC[C@@H](NC(=O)c3cccnc3)[C@H](O)C2)n[nH]1	-5.341	–	–
COCCN1CCC(CN(CC2CCCO2)C(=O)COC)CC1 (configuration not stated)	27.45	–	–
O=S(=O)(c1ccccc1)N1CCN(CCn2ccnc2)CC1	-51.46	–	–
CC(CNC(=O)Nc1ccc(N(C)C)nc1)Cn1cccn1 (configuration not stated)	-28.69	–	–
COCCN(Cc1ccc(F)cc1Cl)C(=O)c1cccc[n+]1[O-]	-17.57	–	–
Cc1cnn(CC2CN(CCc3ccncc3)CCO2)c1 (configuration not stated)	-83.94	–	–
CCc1nnc2n1CCN(Cc1csc(-c3cnn(C)c3)n1)C2	-30.99	–	–
Nc1cc(CCCNC(=O)NC2CC2)nn1-c1ccccc1	-35.32	–	–
CCn1nc(C(C)C)cc1C(=O)NCCCOC	-51.54	–	–
O=C(c1ccc(=O)[nH]n1)N1CC(c2nc(Cc3ccccc3)no2)C1	-36.12	–	–

Compound	Percent Effect (Schistosoma mansoni) [%]	IC50 [1] [µM]	IC50 [2] [µM]
O=C1CCSCC(C(=O)N2CCOCC2)N1 (configuration not stated)	-55.74	–	–
CCCNC(=O)CSc1nnc2[nH]c(=O)cc(CC)n12	-63.88	–	–
CN(CCCNc1cc(N2CCCC2CO)ncn1)S(C)(=O)=O (configuration not stated)	-51.96	–	–
CCc1cc(NC2CCN(S(C)(=O)=O)CC2)n2nc(C)c(C)c2n1	-49.44	–	–
CS(=O)(=O)CCNC(=O)C1(c2cccc(Cl)c2)CCCCC1	34.87	–	–
CSc1ccccc1CN1CCn2nc(CNC(C)=O)cc2C1	-11.64	–	–
O=C(Cc1ccc(O)c(Cl)c1)N1CCN(CC2CC2)[C@@H]2CS(=O)(=O)C[C@@H]21	-40.54	–	–
Cc1noc(C)c1CCC(=O)N1CCN(CCn2cncn2)CC1	-8.408	–	–
CC(C)(C)NC(=O)CNC(=O)CCc1ccccc1Br	20.34	–	–
CC(Cn1cncn1)NCc1nncn1C1CCCCC1 (configuration not stated)	4.936	–	–
Cc1nc[nH]c1-c1nc2cc(S(=O)(=O)N3CCCC3)ccc2n1C	-57.95	–	–
O=C(CCc1ccccc1)C1CCCN(C(=O)c2ncc(F)cc2F)C1 (configuration not stated)	-32.14	–	–
COCCCC1(CO)CCCN(CCS(C)(=O)=O)C1 (configuration not stated)	-38.37	–	–
O=c1nc(SCc2cccnc2)c2c(n1CCO)CCC2	-102.8	–	–
Cc1cccc(CNCc2c(C(C)C)nn(C)c2N2CCOCC2)n1	-46	–	–
NC(=O)CN1CCCN(C(=O)c2ccn(-c3ccccc3)n2)CC1	-17.53	–	–
COc1ccccc1[C@@H]1CN(Cc2cc(C(C)(C)C)[nH]n2)C[C@H]1C(=O)O	42.17	–	–
CCn1c(CN(C)C)nnc1C1CCN(c2ccnc(C)c2)CC1	3.943	–	–
CCC(=O)N1CCC(c2nnc(Cn3cccn3)n2C2CC2)CC1	-15.52	–	–
CC(C)NC(=O)[C@@H]1C[C@H](N)CN1C(=O)c1cc2c([nH]c1=O)CCCC2	-18.08	–	–
Cc1ccn(-c2ccccc2NCc2cccnc2C)n1	-3.196	–	–
CC(C)S(=O)(=O)NCC1CCCN(C(=O)c2ccc3c(c2)OCCO3)C1 (configuration not stated)	-47.11	–	–

Compound	Percent Effect (Schistosoma mansoni) [%]	IC50 [1] [µM]	IC50 [2] [µM]
Cc1cccnc1NC(=O)CSc1ccc2c(c1)OCCO2	-40.06	–	–
CCS(=O)(=O)N(C)c1ccc(C(=O)N2CCCC(C)C2)cc1 (configuration not stated)	-22.28	–	–
Cc1nccn1-c1cc(CNC(=O)c2ccccn2)ccn1	-81.26	–	–
CC(C1CC1)N(C(=O)NCCCn1nc2ccccn2c1=O)C1CC1 (configuration not stated)	-46.88	–	–
COC(=O)CS(=O)(=O)CCC(=O)N1CCCC1c1ccsc1 (configuration not stated)	-22.42	–	–
CCc1noc(C(C)N(C)CC(=O)Nc2cccc(C)n2)n1 (configuration not stated)	0.2571	–	–
Cc1nc(C)n(CC2CCCN(CCc3ccncc3)C2)n1 (configuration not stated)	-44.91	–	–
Cc1ccc(N2CCN(C(=O)COc3ccccc3)CC2)nn1	-51.88	–	–
CC(C)NC(=O)[C@@H]1C[C@H](N)CN1C(=O)c1cc2ccccc2[nH]c1=O	-4.577	–	–
Cc1cnn(CCC(=O)N2CCOC(c3nc(C(C)(C)C)n[nH]3)C2)c1 (configuration not stated)	-4.27	–	–
CC(C)C1CN(c2ncccn2)CCC(=O)N1Cc1ccc(F)cc1 (configuration not stated)	-32.66	–	–
O=C(NCC(O)c1cccs1)c1cccc(Cl)c1 (configuration not stated)	-28.05	–	–
Cc1ccc(S(=O)(=O)NC2CNC(=O)C2)cc1C (configuration not stated)	-73.52	–	–
Cl.Cl.OC(CN1CCN(Cc2ccc(F)c(F)c2)CC1)C1CC1 (configuration not stated)	-57.04	–	–
CN(CCC(F)(F)F)C(=O)C1CCCN1C(=O)OC(C)(C)C (configuration not stated)	-26.39	–	–
COc1ccccc1OCc1cc(C(=O)N2C[C@H](O)[C@@H](N(C)C)C2)n[nH]1	-29.56	–	–
Cn1c(C(F)(F)F)nn(CCNC(=O)NCc2ccccc2)c1=O	16.6	–	–
COc1ccc(Br)c(C(=O)NCC2CCN(S(=O)(=O)C3CC3)CC2)c1	-3.942	–	–
Cc1cnccc1N1CCCN(C(=O)CCCS(N)(=O)=O)CC1	-57.05	–	–
COCCN1CCN(C(=O)c2cc(C(C)C)on2)[C@H]2CS(=O)(=O)C[C@H]21	3.129	–	–
COC(=O)c1sccc1S(=O)(=O)N1CCC(Oc2cccnn2)CC1	-55.3	–	–
Cc1cc(C)n(CC2CCCN2C(=O)c2ccc3c(c2)nnn3C)n1 (configuration not stated)	-59.08	–	–

Compound	Percent Effect (Schistosoma mansoni) [%]	IC50 [1] [µM]	IC50 [2] [µM]
CCn1nc2c(cc1=O)CN(Cc1nc(N)c3ccccc3n1)CC2	-40.99	–	–
Cc1nc(CN2CCc3cncnc3C2)oc1C	-26.27	–	–
O=C(CCCc1cn[nH]c1)N1CCOCC(O)C1 (configuration not stated)	-19.59	–	–
CN(C)Cc1nnc(C2CCN(c3nccc(N)n3)CC2)n1C1CC1	-22.89	–	–
CN(C(=O)Cn1nc(-c2ccc(F)cc2)oc1=O)C1CCS(=O)(=O)C1 (configuration not stated)	-46.67	–	–
CCc1n[nH]c(C2CN(CC(=O)NCCc3ccsc3)CCO2)n1 (configuration not stated)	-30.25	–	–
Cc1cnc2n(c1=O)CC(C(=O)NC1CC1)CS2 (configuration not stated)	-61.59	–	–
COc1ccc(NC(=O)NC(C)(C)c2noc(C)n2)cc1	-52.77	–	–
CN(C)C(C(=O)N1CCCC1)c1ccccc1F (configuration not stated)	-55.33	–	–
CCc1noc(C(C)N(C)CC(=O)Nc2c(C)cccc2C)n1 (configuration not stated)	-71	–	–
Cc1cncc(C(=O)N2CCCC(C(=O)CCc3ccccc3)C2)c1 (configuration not stated)	-9.118	–	–
CCCNC(=O)Cn1nc(C(C)C)c2cnn(C(C)(C)C)c2c1=O	-27.62	–	–
Cc1ccc(C(=O)N2CCCC2c2nnc3n2CCCCC3)o1 (configuration not stated)	-40.92	–	–
O=C(CSc1ccc2c(c1)OCCO2)NS(=O)(=O)C1CCCCC1	7.796	–	–
Cc1nn(C)c(N(C)C)c1CNCC(O)COc1ccc(F)cc1 (configuration not stated)	-41.92	–	–
CN1C(=O)C(C)(C)COc2cc(NS(=O)(=O)c3ccccc3)ccc21	35.25	–	–
CCc1noc(C(C)N(C)CC(=O)Nc2ccc(C)cc2)n1 (configuration not stated)	-42.61	–	–
CC(C)(C)c1ccn(C2(C(=O)O)CCN(c3nccc(N)n3)CC2)n1	14.42	–	–
Cc1cnc2n(c1=O)CC(C(=O)Nc1ccccc1Cl)CS2 (configuration not stated)	-94.31	–	–
Cc1cccc(CCC(=O)N2CCOCC2c2c(C)n[nH]c2C)c1 (configuration not stated)	-56.4	–	–
COc1cccc(N2CCN(Cc3ccc(NC(C)=O)cc3)CC2=O)c1	-11.44	–	–
NC(=O)CCOc1nc(-c2ccccc2Cl)no1	-31.15	–	–

Compound	Percent Effect (Schistosoma mansoni) [%]	IC50 [1] [µM]	IC50 [2] [µM]
O=C(c1cc(=O)[nH]c(=O)[nH]1)N1CCCCC1c1nc2cc(F)ccc2[nH]1 (configuration not stated)	-2.098	–	–
Cn1cc(CCC(=O)N2C[C@H]3CC[C@@H]2CN(Cc2ccccc2)C3)cn1	-38.92	–	–
Cc1nn(C)c(N(C)C)c1CNCC(O)COc1ccccc1.Cl (configuration not stated)	-91.65	–	–
Cc1noc(-c2ccc(N3CCCC(C(=O)N4CCSCC4)C3)nc2)n1 (configuration not stated)	26.74	–	–
COc1cccc(S(=O)(=O)NC2CNC(=O)C2)c1 (configuration not stated)	-3.901	–	–
CC(C)(C(=O)NCC(N)=O)c1ccccc1F	10.05	–	–
Cn1nc(C(=O)N2CCCCC2c2nc3cc(F)ccc3[nH]2)ccc1=O (configuration not stated)	-12.79	–	–
COc1ccc(CN(C)C(=O)CCc2c(C)nc(C)[nH]c2=O)cc1OC	-19.42	–	–
Cn1cc(-c2csc(N3CCOCC3)n2)cn1	7.634	–	–
CC1CN(C)c2ccccc2CN1C(=O)c1ccncc1 (configuration not stated)	-35.26	–	–
COCCNS(=O)(=O)c1cccc2c1CN(C(=O)c1ccccc1)CC2	10.23	–	–
O=C(NCC1CCN(C(=O)c2ccoc2)CC1)c1ccccc1Br	-0.2634	–	–
CC(=O)NC(C)CC(=O)NCc1cccnc1Oc1ccccc1C (configuration not stated)	11.59	–	–
CN(C)C(CNS(=O)(=O)c1ccc(F)cc1F)c1cccn1C (configuration not stated)	13.79	–	–
Cc1nc[nH]c1CN1C[C@@H]2CC[C@H](C1)N(C(=O)CCNS(C)(=O)=O)C2	1.774	–	–
CCCNC(=O)C(C)NC(=O)CCc1ccccc1Br (configuration not stated)	31.68	–	–
O=C(NCC(Cc1cccc(F)c1)N1CCCC1=O)c1cnccn1 (configuration not stated)	3.976	–	–
CCc1ncc2c(n1)CN(Cc1nnc(C)o1)CC2	-12.75	–	–
